The nature of assay [1]: Removal of OsteoSense 750 from hydroxyapatite, spectrophotometry at 750 nm. The following applies: hydrogen peroxide 30%, phosphoric acid 40%. How it is done: The tubes were vortexed, and the mixture was allowed to settle to obtain a supernatant. Each supernatant was collected and analyzed for probe content using a spectrophotomer.
The HA sample was washed with PBS and a spectrophotometric scan of the wash solution was performed.

Assay [2] in a line: RFU comparison of solutions to release OsteoSense 750 from HA.
Method: Variables included conditions of pH, temperature, and presence of 1% calcium chloride.
Three conditions were tested: incubation for 15 minutes at 37° C. after vortexing; adjusting pH to 6.5 at 23° C. after vortexing; and addition of 1% calcium chloride to each solution and incubation at room temperature after vortexing.
For assay [3] the following is noted: hydrogen peroxide 38%. Here is the method:
The efficacy of removal of the probe by the solution was determined by criteria such as extent of fluorescence remaining on a tooth after rinse, or fluorescence extracted from hydroxyapatite into a rinse solution.

Setting [4] is: 1% solution with calcium chloride (1%), room temperature.
Where [5] appears, read: 1% solution, 15 minutes at 37° C.
Setting [6] is: 1% solution, pH 6.5, room temperature.
The mark [7] stands for this setting: 5% solution with calcium chloride (1%), room temperature.
Where [8] appears, read: 5% solution, 15 minutes at 37° C.
The mark [9] stands for this setting: 5% solution, pH 6.5, room temperature.
Setting [10] is: 10% solution with calcium chloride (1%), room temperature.
Where [11] appears, read: 10% solution, 15 minutes at 37° C.
Where [12] appears, read: 10% solution, pH 6.5, room temperature.
Setting [13] is: 20% solution with calcium chloride (1%), room temperature.
Where [14] appears, read: 20% solution, 15 minutes at 37° C.
The mark [15] stands for this setting: 20% solution, pH 6.5, room temperature.

Like-named read-outs stand apart in the source and are kept apart here.

In the case of `O=P(O)(O)O` [phosphoric acid (PA), phosphoric acid], in assay [1], the “spectrometric signal at 750 nm in supernatant (release of OsteoSense 750 from HA)” value was “definite peak at 750 nm”. The “% released of total OsteoSense” value in assay [2] (setting [4]) was determined as 1.01%; in assay [2] (setting [5]), 4.61%; in assay [2] (setting [6]) it was 6.17%; in assay [2] (setting [7]), 9.44%; in assay [2] (setting [8]), 9.78%; in assay [2] (setting [9]), 28.38%. For the same molecule, the “% released of total OsteoSense” value in assay [2] (setting [10]) is listed as 10.57%; in assay [2] (setting [11]) it was 4.37%; in assay [2] (setting [12]), 45.32%; in assay [2] (setting [13]), 5.12%; in assay [2] (setting [14]), 3.54%; in assay [2] (setting [15]) it was 25.34%. Further, the “% released of total reference value” in assay [2] (setting [4]) was found to be 2.27%; in assay [2] (setting [5]) it was 7.36%; in assay [2] (setting [6]) it was 18.74%; in assay [2] (setting [7]) it was 40.79%; in assay [2] (setting [8]) it was 18.94%; in assay [2] (setting [9]), 39.54%. Besides, the “% released of total reference value” in assay [2] (setting [10]) turned out to be 43.29%; in assay [2] (setting [11]) it was 9.10%; in assay [2] (setting [12]) it was 67.03%; in assay [2] (setting [13]), 11.99%; in assay [2] (setting [14]) it was 8.51%; in assay [2] (setting [15]), 39.91%. The “Raw RFU value” in assay [2] (setting [4]) is 0.38 RFU; in assay [2] (setting [5]), 1.73 RFU; in assay [2] (setting [6]), 2.31 RFU; in assay [2] (setting [7]), 3.54 RFU; in assay [2] (setting [8]) it was 3.67 RFU; in assay [2] (setting [9]), 10.64 RFU. Further, the “Raw RFU value” in assay [2] (setting [10]) came to 3.97 RFU; in assay [2] (setting [11]) it was 1.64 RFU; in assay [2] (setting [12]), 17.00 RFU; in assay [2] (setting [13]), 1.92 RFU; in assay [2] (setting [14]) it was 1.33 RFU; in assay [2] (setting [15]), 9.50 RFU.

With `OO` [hydrogen peroxide], the “fluorescence of OsteoSense 750 bound to caries lesion after application with a syringe” value in assay [3] was “eliminated fluorescence”. For the same molecule, the “fluorescence of OsteoSense 750 bound to the tooth after rinse” value is “substantially eliminated” in assay [3] (ten minutes after application) and “substantially reduced” in assay [3] (three minutes after application). In assay [1], the “spectrometric signal at 750 nm in supernatant (release of OsteoSense 750 from HA)” value was “no signal at 750 nm”.

The values are drawn from US20140093457A1, “Compositions, methods and kits for remineralization and inhibition of dental caries in teeth” (President and Fellows of Harvard College, priority 2010, published 2014).
